# Assays:
# HT-29 cells [1] = assay: Re-examination of apoptosis inducing effect on HT-29 cells; assay type: cell-based
# Source text: Since the in vitro strong effect could not be confirmed in the animal experiment, the apoptosis inducing effect of VST on HT-29 cells was reexamined.
# [2] = system: HeLa cells and various other culture cells; assay: Survival rate of a variety of cells, MTT method (all cell lines together); assay type: cell-based
# Source text: (§1) In this Example, HeLa cells and various other culture cells were used to measure the survival rate during the above-mentioned reporter analysis and VST addition. Specifically, in addition to HeLa cells (human cervical cancer cells), MCF-7 (human breast cancer cells), PC12NH (rat pheochromocytoma), MDA-MB-231 (human breast cancer cells), TIG-3 (human normal fibroblast cells), HeLa 786C cells (human cervical cancer cells), Saos-2 (telomerase and p53-deficient human cancer cells) and SUSM-1 (telomerase-deficient human cancer cells) were used.
# (§2) The direct growth suppression activity of VST on these cells was measured using the MTT method. 100 μL cell suspension (5×10^4/mL) of each of the above-mentioned cells was dispensed into each well of a 96-well plate and cultured for 6 hours at 37° C. After culturing, VST solution diluted stepwise as in Example 4 was added thereto and cultured for another 24 hours. After culturing for 24 hours, 0.05 g/mL MTT solution (10 μL) was added to each well and incubation was performed at 37° C. for 4 hours. The medium was then removed, DMSO (100 μL) was added, and the absorbance at 530 nm was measured (FIG. 8).
# HT-29 cells [3] = assay: Colony formation of HT-29 cells under endoplasmic reticulum stress conditions; assay type: cell-based
# Protocol: HT-29 cells were pretreated for 30 min with each concentration of VST, and then subjected to stress treatment with each of the endoplasmic reticulum stresses, i.e., tunicamycin, calcium ionophore A23187, glucose starvation and 2-DG, for 18 hours. Subsequently, the cells were cultured for 1 week […], and then colonies were measured by crystal violet staining.
# XBP1 = assay: Formation of spliced XBP1 in HT1080 transfected with Flag-tagged XBP1; assay type: cell-based
# Source text: To elucidate the mechanism of VST to express its activity, the effect of VST on several factors that function in the pathway of endoplasmic reticulum stress response was examined. In particular, Ire1α-XBP1 pathway, a pathway of endoplasmic reticulum stress response and is widely conserved from yeast to mammalian cells, was examined. XBP1 spliced at the mRNA level from a precursor (XBP1 (U)) by Ire1α, that is activated in response to endoplasmic reticulum stress turns into the activated form (XBP1(S)), transfers to the nucleus, and induces transcription of GRP78 by binding to the GRP78 promoter, ERSE.
# A plasmid wherein a Flag tag is linked to the cloned XBP1 was transfected into HT1080, and the cell was pretreated for 30 min with VST. 6 hours after imposing each stress, proteasome inhibitor MG132 was added and the cells were cultured for another 6 hours to prepare samples. The full length and spliced XBP1 were detected in the samples using anti-Flag antibody. Examination on the formation of the spliced form XBP1 due to 2-DG treatment is shown in FIG. 16A and that due to tunicamycin treatment is shown in FIG. 16B. Since the spliced form of XBP1 is very rapidly degraded by proteasomes, its detection is difficult. To overcome this problem, proteasome inhibitor MG132 was added. […]
# HT-29 cells [4] = assay: Combined use of VST and cisplatin, colony-forming ability of HT-29 cells; assay type: cell-based
# Source text: Enhancement of endoplasmic reticulum stress response promotes survival of cells under undernutritive conditions, and at the same time allows cells to acquire resistance to antitumor agents. Therefore, the inventors intended to examine the effect of VST on known antitumor agents. […] Therefore, the combined effect with other pharmaceutical agents could not be duly examined. Thus, cisplatin generally used for solid cancer treatment was used to examine the combined effect, due to its activity on cancer cells that is maintained even under low glucose conditions. Specifically, HT-29 cells were cultured by the above-mentioned method, pretreated for 30 min with VST, and then cultured for 18 hours. The cells were then treated for 4 hours with each concentration of cisplatin, and a week later their colony-forming ability was examined.
# GRP78 = assay: Western blotting of endogenous GRP78 induction in HeLa78C6 cells; assay type: cell-based, human
# Protocol: HeLa78C6 cells were cultured in DMEM media, 30 min before tunicamycin addition each concentration of VST was added, followed by 2 μg/mL of tunicamycin, and treated for 18 hours. The cells were collected, and the induction of GRP78 was detected by Western blotting using anti-GRP78 antibody (Stressgene). As a result, it was confirmed that VST inhibits not only the reporter assay, but also the induction of endogenous molecular chaperone GRP78 at the protein level in a concentration-dependent manner (FIG. 9A).
# Furthermore, HeLa78C6 was cultured by the above-mentioned culturing method and pretreated for 30 min with 50 μM VST. Then, the cells were collected at each time point after the addition of tunicamycin to detect the GRP78 protein level by Western blotting.
# Moreover, the GRP78 level 18 hours after the treatment with each of the indicated endoplasmic reticulum stress-inducing agents was detected using a method similar to that used for FIG. 9A.
# TIG-3 = assay: Direct growth suppression, MTT method; assay type: cell-based; details: Homo sapiens, 24 hours, read-out: IC50 of VST
# Source text: as §1, §2
# PC12NH = assay: Direct growth suppression, MTT method; assay type: cell-based; details: Rattus norvegicus, 24 hours, read-out: IC50 of VST
# Source text: as §1, §2
# HT1080 cells = assay: Apoptosis (sub-G1) of HT1080 cells by propidium iodide FACS analysis; assay type: cell-based; details: for sub-G1 stage induction (apoptosis): 3 μM VST
# Protocol: HT1080 cells were pretreated for 30 min with 3 μM of VST, after fixing the cells the nuclei were stained with propidium iodide for FACS analysis. […] In contrast, only a very limited number of HT1080 cells underwent apoptosis with glucose starvation treatment alone.
# HT-29 cells [5] = assay: Antitumor effect against HT-29 cells transplanted into nude mice; assay type: in vivo
# Protocol: The antitumor effect of VST at the animal level was examined. Specifically, HT-29 cells were transplanted into nude mice and tumor was grown to 100 mm^3. Subsequently, each concentration of VST was administered through the tail vein, progress of cancer was followed each day thereafter, and the tumor was enucleated to compare its size. […] Furthermore, the combined effect with CDDP (cisplatin) was examined.
smiles,measurement,setting,value
"CC/C1=C\C(CO)CC(C)C(OC2CC(O)C(OC3CC(OC)C(OC4CC(O)C(O)C(C)O4)C(C)O3)C(C)O2)C(C)CCCC2(C)C=C(C)C(C)CC23OC(=O)C(=C3O)C(=O)C2(CC)C1C(C)=CC1C(O)CC(=O)C(C)C12 (centres unmarked) [VST, versipelostatin]",apoptosis induction effect,HT-29 cells [1],fails to express apoptosis induction effect
same,growth suppression effect in colony forming tests,HT-29 cells [1],shows growth suppression effect
same,degree of decrease of survival rate,"[2]; VST 100 μg/mL, many cell lines",≤ 50%
same,survival rate,[2]; VST approximately 10 μg/mL,slight decrease was observed in a few cell lines
same,survival rate,"[2]; VST final concentration of 1 μg/mL, all cell lines",No decrease in the survival rate was observed
same,cell growth suppression (colony formation),"HT-29 cells [3]; 2-DG treatment 18 hours, 1 week culture (FIG. 11D)",strong cell growth suppression effect
same,cell growth suppression (colony formation),"HT-29 cells [3]; glucose starvation 18 hours, 1 week culture (FIG. 11C)",strong cell growth suppression effect
same,cell growth suppression (colony formation),"HT-29 cells [3]; tunicamycin treatment 18 hours, 1 week culture (FIG. 11A)",did not show suppression on cell growth
same,formation of spliced XBP1,"XBP1; 2-DG treatment, MG132 added (FIG. 16A)",inhibited
same,formation of spliced XBP1,"XBP1; tunicamycin treatment, MG132 added (FIG. 16B)",did not inhibit the splicing of XBP1
same,effect of the combined use of VST with cisplatin on colony-forming ability,"HT-29 cells [4]; VST 300 nM and 500 nM, then cisplatin 4 hours (FIG. 14)",further enhance the effect of cisplatin
same,activity on colony-forming ability under glucose starvation condition,HT-29 cells [4]; glucose starvation condition,enhance the activity
same,"GRP78 protein level, time course","GRP78; 50 μM VST pretreatment 30 min, 12 to 18 hours after tunicamycin 2 μg/mL (FIG. 9B)",inhibited
same,selectivity of the effect among endoplasmic reticulum stresses,GRP78; 18 hours (FIG. 9C),higher selectivity against 2-deoxyglucose
same,induction of GRP78 by each endoplasmic reticulum stress-inducing agent,GRP78; 18 hours after treatment (FIG. 9C),inhibited the induction of GRP78 against any of the endoplasmic reticulum stresses
same,induction of endogenous GRP78 at the protein level,"GRP78; each concentration of VST 30 min before tunicamycin 2 μg/mL, 18 hours (FIG. 9A)",inhibits
same,IC50,TIG-3,> 100 µM
same,IC50,PC12NH,> 100 µM
same,sub-G1 stage induction (apoptosis),"HT1080 cells; glucose starvation condition, after 48 hours",strong sub-G1 stage induction
same,sub-G1 stage induction (apoptosis),HT1080 cells; in the presence of glucose,did not show any effect
same,"induction of apoptosis, sequential changes",HT1080 cells; glucose starvation conditions (FIG. 13),time-dependent manner
same,antitumor effect (tumor size),"HT-29 cells [5]; HT-29 tumor grown to 100 mm^3 in nude mice, VST through the tail vein (FIG. 15)","showed antitumor effect, although the effect was not as strong as cisplatin"
same,combined effect with CDDP (cisplatin),HT-29 cells [5]; HT-29 tumor in nude mice,no effect due to the combination could be confirmed

# Reference: patent US7358233B2, “Tetronic acid derivative” (Toudai TLO, Ltd, priority 2001, dated 2008)
